# Data reported in PubChem BioAssay (NCI).
#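 A five-concentration, 48-hour dose response in 96-well plates underlies each endpoint, interpolated linearly between surrounding concentrations. GI50 = concentration required for 50% inhibition of growth. TGI denotes the concentration required for complete inhibition of growth.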
# How the values were obtained:
# Experiment in all cases: growth of human tumour cells (NCI), 48 h
# [1] = test system: SK-MEL-5 melanoma
# [2] = test system: COLO 205 colon
# [3] = test system: CCRF-CEM leukemia
# [4] = test system: M14 melanoma
# [5] = test system: UACC-62 melanoma
# [6] = test system: OVCAR-8 ovarian
# [7] = test system: SR leukemia
# [8] = test system: NCI-H460 lung
# [9] = test system: EKVX NSCLC
# [10] = test system: SF-268 CNS
# [11] = test system: PC-3 prostate
# [12] = test system: IGROV1 ovarian
# [13] = test system: KM12 colon
# [14] = test system: UACC-257 melanoma
# [15] = test system: LOX IMVI melanoma
# [16] = test system: SK-OV-3 ovarian
# [17] = test system: MALME-3M melanoma
# [18] = test system: T-47D breast
# [19] = test system: MOLT-4 leukemia
# [20] = test system: OVCAR-4 ovarian
# [21] = test system: NCI/ADR-RES ovarian
# [22] = test system: NCI-H522 lung
# [23] = test system: HT29 colon
# [24] = test system: SF-295 CNS
# [25] = test system: SNB-75 CNS
# [26] = test system: U251 CNS
# [27] = test system: NCI-H23 lung
# [28] = test system: UO-31 renal
# [29] = test system: SN12C renal
# [30] = test system: OVCAR-5 ovarian
# [31] = test system: HOP-62 NSCLC
# [32] = test system: 786-0 renal
# [33] = test system: SNB-19 CNS
# [34] = test system: DU-145 prostate
# [35] = test system: NCI-H226 lung
# [36] = test system: HL-60(TB) leukemia
# [37] = test system: RXF 393 renal
# [38] = test system: SW-620 colon
# [39] = test system: HCT-15 colon
# [40] = test system: TK-10 renal
# [41] = test system: HCT-116 colon
# [42] = test system: CAKI-1 renal
# [43] = test system: HCC-2998 colon
# [44] = test system: MDA-MB-435
# [45] = test system: RPMI-8226 leukemia
# [46] = test system: SK-MEL-2 melanoma
# [47] = test system: MCF7 breast
# [48] = test system: A549 NSCLC
# [49] = test system: SK-MEL-28 melanoma
# [50] = test system: A498 renal
# [51] = test system: BT-549 breast
# [52] = test system: HS 578T breast
# [53] = test system: HOP-92 NSCLC
# [54] = test system: OVCAR-3 ovarian
# [55] = test system: K-562 leukemia
# [56] = test system: MDA-MB-231 breast
# [57] = test system: ACHN renal
smiles,measurement,setting,value
CCOC(=O)C#Cc1c(C(=O)OCC)nnn1[C@@H]1O[C@H](CO)[C@H]2OC3(CCCCC3)O[C@H]21,GI50,[1],13.7 µM
same,TGI,[1],26.6 µM
same,GI50,[2],1.98 µM
same,TGI,[2],4.06 µM
same,GI50,[3],1.62 µM
same,TGI,[3],4.85 µM
same,GI50,[4],2.67 µM
same,TGI,[4],7.6 µM
same,GI50,[5],2.02 µM
same,TGI,[5],4.55 µM
same,GI50,[6],3.81 µM
same,TGI,[6],13.2 µM
same,GI50,[7],1.63 µM
same,TGI,[7],4.64 µM
same,GI50,[8],13.4 µM
same,TGI,[8],28.9 µM
same,GI50,[9],15.6 µM
same,TGI,[9],30.1 µM
same,GI50,[10],14.3 µM
same,TGI,[10],34.6 µM
same,GI50,[11],13.5 µM
same,TGI,[11],26.8 µM
same,GI50,[12],15.5 µM
same,TGI,[12],36.7 µM
same,GI50,[13],12.2 µM
same,TGI,[13],27 µM
same,GI50,[14],2.93 µM
same,TGI,[14],7.52 µM
same,GI50,[15],1.31 µM
same,TGI,[15],2.83 µM
same,GI50,[16],17.7 µM
same,TGI,[16],33.3 µM
same,GI50,[17],1.87 µM
same,TGI,[17],3.76 µM
same,GI50,[18],2.21 µM
same,TGI,[18],5.47 µM
same,GI50,[19],1.95 µM
same,TGI,[19],5.42 µM
same,GI50,[20],2.04 µM
same,TGI,[20],4.48 µM
same,GI50,[21],7.27 µM
same,TGI,[21],29.8 µM
same,GI50,[22],1.96 µM
same,TGI,[22],4.09 µM
same,GI50,[23],1.93 µM
same,TGI,[23],3.77 µM
same,GI50,[24],20.9 µM
same,TGI,[24],45.3 µM
same,GI50,[25],11.5 µM
same,TGI,[25],24.2 µM
same,GI50,[26],11.2 µM
same,TGI,[26],23.2 µM
same,GI50,[27],10.1 µM
same,TGI,[27],28.4 µM
same,GI50,[28],1.67 µM
same,TGI,[28],3.28 µM
same,GI50,[29],3.11 µM
same,TGI,[29],9.37 µM
same,GI50,[30],8.09 µM
same,TGI,[30],22.6 µM
same,GI50,[31],17.7 µM
same,TGI,[31],33.7 µM
same,GI50,[32],2.88 µM
same,TGI,[32],8.62 µM
same,GI50,[33],18.3 µM
same,TGI,[33],40.5 µM
same,GI50,[34],3.89 µM
same,TGI,[34],13.6 µM
same,GI50,[35],1.72 µM
same,TGI,[35],3.17 µM
same,GI50,[36],1.87 µM
same,TGI,[36],5.88 µM
same,GI50,[37],1.8 µM
same,TGI,[37],3.46 µM
same,GI50,[38],1.81 µM
same,TGI,[38],3.64 µM
same,GI50,[39],1.87 µM
same,TGI,[39],3.53 µM
same,GI50,[40],1.79 µM
same,TGI,[40],3.28 µM
same,GI50,[41],1.92 µM
same,TGI,[41],3.48 µM
same,GI50,[42],1.76 µM
same,TGI,[42],3.31 µM
same,GI50,[43],18 µM
same,TGI,[43],32.8 µM
same,GI50,[44],4.49 µM
same,TGI,[44],16 µM
same,GI50,[45],3.07 µM
same,TGI,[45],7.97 µM
same,GI50,[46],17.7 µM
same,TGI,[46],34 µM
same,GI50,[47],2.11 µM
same,TGI,[47],6.56 µM
same,GI50,[48],19.9 µM
same,TGI,[48],35.8 µM
same,GI50,[49],2.06 µM
same,TGI,[49],4.51 µM
same,GI50,[50],17.6 µM
same,TGI,[50],31.8 µM
same,GI50,[51],8.66 µM
same,TGI,[51],20.8 µM
same,GI50,[52],19.6 µM
same,TGI,[52],58.3 µM
same,GI50,[53],2.23 µM
same,TGI,[53],5.27 µM
same,GI50,[54],1.7 µM
same,TGI,[54],3.21 µM
same,GI50,[55],1.67 µM
same,TGI,[55],7.97 µM
same,GI50,[56],2.97 µM
same,TGI,[56],8.79 µM
same,GI50,[57],1.8 µM
same,TGI,[57],3.41 µM
